The results in this text go back to patent US20220402917A1, “COMPOUND AS SMALL MOLECULE INHIBITOR PD-1/PD-L1 AND APPLICATION THEREOF” (MEDSHINE DISCOVERY INC., priority 2019, published 2022).

Experiment [1] deals with T1, PD-L1 in MDA-MR-231 cells (Homo sapiens, UniProt Q9NZQ7).
T1 construct: endogenous in cells; host or cells: MDA-MB-231
The experiment is described as follows: Effect on expression level of PD-L1 in MDA-MR-231 cells (FACS). It is filed as cell-based. The settings on record: 24 hours incubation, FACS detection of cell surface PD-L1. The method, then: Experimental Example 2: Using MDA-MR-231 Cells to Detect the Effect of Compounds on the Expression Level of PD-L1
The use of a triple-negative breast cancer cell line (MDA-MB-231) is an indirect method to assess PD-L1 endocytosis. PD-L1 molecules on the cell surface can be degraded by lysosomal and proteasome pathways, and small molecule inhibitors are added to induce PD-L1 endocytosis. After co-incubating small molecules with MDA-MB-231 cells for 24 hours, flow cytometry (Fluorescence-activated Cell Sorting, FACS) is used to detect the content of PD-L1 on the cell surface, which can indirectly reflect the effect of small molecule-induced PD-L1 endocytosis. Flow cytometry (FACS) is used to detect the effect of the compounds of the present disclosure on the expression level of PD-L1 in MDA-MR-231 cells.
Phosphate buffer (DPBS), 1640 medium, penicillin-streptomycin, fetal bovine serum, non-essential amino acids, 2-hydroxy-1-ethanethiol (2-ME), human interferon γ, LIVE/DEAD staining solution, staining buffer, fixation buffer, 0.25% trypsin, EDTA, anti-human PD-L1, anti-human PD-L1 isotype.
1640 complete medium preparation: 50 mL of fetal bovine serum, 5 mL of non-essential amino acids, 5 mL of penicillin-streptomycin and 0.5 mL of 2-hydroxy-1-ethanethiol were added to 439.5 mL of 1640 medium, and evenly mixed.
10 mM EDTA preparation: 1 mL of 0.5M EDTA was added to 49 mL of DPBS, and evenly mixed.
1) MDA-MB-231 cell counting and plating: The culture flask was taken out, the medium was removed and the culture flask was rinsed once with DPBS. After the culture flask was rinsed, 3 mL of 0.25% trypsin was added to the culture flask and the culture flask was placed in a 37° C. incubator for 1.5 min. The culture flask was taken out, 9 mL of 1640 complete medium was added to stop the reaction, the cells was transferred to a 50 mL centrifuge tube, and centrifuged at 1000 rpm for 5 min at 37° C. An appropriate volume of medium was added to re-suspend the cells according to the number of cells, and the number of cells was counted with a cell counter. The cell concentration was adjusted to 5×10^5 cells/mL with medium. Planking: A volume of 200 μL of cell suspension was added to each well of a 96-well plate, ensure that the number of cells in each well was 1×10^5. The cells were incubated overnight in an incubator. 2) Drug incubation: 100-fold dilution of compounds were prepared, and the drug was subjected to a 5-fold gradient dilution. 2 μL of each 100-fold dilution of compounds were added to each well. The cells were incubated in an incubator at 37° C. for 24 hours. 3) PD-L1 cell staining and FACS detection: the culture plate was taken out and the supernatant medium was discarded. The cells were washed once with 200 μL 1×PBS. 100 μL of EDTA (final concentration of 10 mM) was added to the cell suspension, and the cell suspension was treated at 37° C. for 10 min. Then after the cell suspension was centrifuged at 1500 rpm for 5 min, the cell suspension was washed once with 200 μL of staining solution. Staining: anti-human PD-L1 (2 μL per well) and LIVE/DEAD staining solution (1:1000) were diluted in staining solution, 50 μL of the staining solution was added to each well, and the staining was conducted at 4° C. for 30 min. Then the solution was washed twice with 200 μL of staining solution. Fixation: 100 μL of fixing solution was added to each well, the fixation was conducted at 4° C. for 15 min. The solution was then washed twice with 200 μL of staining solution, and 150 μL of solution was added to re-suspend the cells, followed by FACS detection.
Table 2 provides the effects of the compounds of the examples of the present disclosure on the expression level of PD-L1 in MDA-MR-231 cells.

For the next experiment, the target named is PD1/PD-L1 (Homo sapiens, UniProt Q9NZQ7). Description: NFAT activity test (TCR Activitor/PD-L1 CHO cells with PD-1/NFAT Reporter-Jurkat cells). The format is cell-based. Further details: host or cells: TCR Activitor/PD-L1 CHO cells; PD-1/NFAT Reporter-Jurkat cells. The following applies: TCR Activitor/PD-L1 CHO cells + PD-1/NFAT Reporter-Jurkat cells, 5 hours, luciferase; for IC50: read-out: IC50, inhibitory activity on PD1/PD-L1 binding (NFAT activity test). The source says: Experimental Example 3: NFAT Activity Test
The engineered T cell expresses PD-1 molecules and T cell receptor (TCR) on the surface, which can activate the NFAT signaling pathway of T cells after co-culturing with engineered antigen presenting cells (APCs). Expression of PD-L1 molecules on APCs can effectively attenuate the NFAT signaling pathway in T cells. PD-L1 inhibitors can be used effectively block the PD-1/PD-L1 regulatory mechanism, thereby reversing the weakened NFAT signaling pathway. After being pretreated with APC, the small molecule is co-cultured with T cells, then the expression of luciferase was detected to indirectly reflect the activation of the NFAT pathway in T cells.
The PD1/PD-L1 NFAT detection kit was purchased from BPS Biosciences. Birght-Glo reagent was purchased from Promega. Nivo multi-label analyzer (PerkinElmer).
The TCR Activitor/PD-L1 CHO cells with a growth confluence of 80% were plated into the plate at 35,000 cells per well and placed in a 37° C. cell culture incubator overnight; the compounds to be tested were diluted 5-fold to the 8th concentration, from 20 μM to 0.25 nM, and the DMSO concentration was 2%, a double-well experiment was set up. The TCR Activitor/PD-L1 CHO cell supernatant was discarded, 50 μl of compound working solution was added to each well, incubated at 37° C. for 30 minutes; after the incubation was completed, 50 μL of PD-1/NFAT Reporter-Jurkat cell suspension with a concentration of 4*10^5 cells/mL was added to each well, incubated at 37° C. for 5 hours. After the incubation was completed, 100 μL Bright-Glo was added to each well, and after mixing, the chemiluminescence signal was detected by a Nivo multi-label analyzer.
Using the equation (sample−Min)/(Max−Min)×100% to convert the raw data into inhibition rate, and the IC50 value can be obtained by curve fitting with four parameters (obtained from log(inhibitor) vs. response—Variable slope mode in GraphPad Prism). Table 3 provides the inhibitory activity of the compounds of the examples of the present disclosure on PD1/PD-L1 binding.

PD1/PD-L1, sequence (Q9NZQ7 19-290): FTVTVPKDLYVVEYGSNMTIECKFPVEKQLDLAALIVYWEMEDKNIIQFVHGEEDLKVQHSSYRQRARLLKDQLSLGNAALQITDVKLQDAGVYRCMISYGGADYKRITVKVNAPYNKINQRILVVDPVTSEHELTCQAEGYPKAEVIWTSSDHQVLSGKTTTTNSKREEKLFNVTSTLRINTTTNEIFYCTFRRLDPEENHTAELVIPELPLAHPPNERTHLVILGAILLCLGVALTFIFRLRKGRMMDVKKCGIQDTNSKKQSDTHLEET
T1 sequence (Q9NZQ7 19-290): as above

With `COc1nc(-c2cccc(-c3cccc(NC(=O)c4cc(C)c5c(n4)CN(CCO)CC5)c3Cl)c2Cl)cnc1CN[C@H]1C[C@](C)(O)C1` [Compound 34], the values for the IC50 (in experiment [1]; at PD1/PD-L1) were 21.9 nM and 44.7 nM, respectively. Also, on PD1/PD-L1, the “Maximum effect (induction fold)” value turned out to be 4.09 induction fold.

Turning to `COc1nc(-c2cccc(-c3cccc(NC(=O)c4cc(C)c5c(n4)CN(CCO)CC5)c3Cl)c2Cl)cnc1CN1CCC2(CNC(=O)C2)C1` (stereo not drawn) [Compound 32], the IC50 in experiment [1] worked out at 5.53 nM. In addition, on PD1/PD-L1, the “Maximum effect (induction fold)” value was 4.93 induction fold and the IC50 is 52.2 nM.

Turning to `COc1nc(-c2cccc(-c3cccc(NC(=O)c4cc(C)c5c(n4)CN(CCO)CC5)c3Cl)c2Cl)cnc1CN1CC(C)(O)C1` [Compound 25], the IC50 in experiment [1] came to 9.97 nM; on PD1/PD-L1 it was 29.2 nM. Moreover, the “Maximum effect (induction fold)” value at PD1/PD-L1 stood at 3.39 induction fold.

`COc1nc(-c2cccc(-c3cccc(NC(=O)c4cc(C)c5c(n4)CN(CCO)CC5)c3C#N)c2Cl)cnc1CN1CC(O)C1` [Compound 47]: the IC50 in experiment [1] was 37.2 nM; at PD1/PD-L1, 52 nM. For the same molecule, the “Maximum effect (induction fold)” value on PD1/PD-L1 came to 4.01 induction fold.

`Cc1cc(C(=O)Nc2cccc(-c3cccc(NC(=O)c4ccc(CNCCO)cn4)c3C)c2Cl)nc2c1CCN(CCO)C2` [Compound 9]: the IC50 in experiment [1] was found to be 41.1 nM. At PD1/PD-L1, the “Maximum effect (induction fold)” value is recorded as 3.77 induction fold and the IC50 stood at 32.6 nM.

As to `COc1nc(-c2cccc(-c3cccc(NC(=O)c4cc(OCc5cncc(C#N)c5)c5c(n4)CN(CCO)CC5)c3Cl)c2Cl)cnc1CN1CC(O)C1` [Compound 51], in experiment [1], the IC50 was 25.8 nM. Further, on PD1/PD-L1, the “Maximum effect (induction fold)” value is recorded as 4.28 induction fold and the IC50 amounted to 47.9 nM.

`Cc1cc(C(=O)Nc2cccc(-c3cccc(NC(=O)c4ccc(CNCCO)cn4)c3Cl)c2Cl)nc2c1CCN(CCO)C2` [Compound 5] gave an IC50 in experiment [1] of 32.7 nM. Further, at PD1/PD-L1, the “Maximum effect (induction fold)” value came out at 3.68 induction fold and the IC50 worked out at 16.2 nM.

`COc1nc(-c2cccc(-c3cccc(NC(=O)c4cc(C)c5c(n4)CN(C(C)CO)CC5)c3Cl)c2Cl)cnc1CN1CC(O)C1` (stereo not drawn) [Compound 27] displayed an IC50 in experiment [1] of 14.6 nM. Further, at PD1/PD-L1, the “Maximum effect (induction fold)” value was found to be 3.48 induction fold and the IC50 was determined as 28.9 nM.

Molecule `COc1nc(-c2cccc(-c3cccc(NC(=O)c4cc(C)c5c(n4)CN(CCO)CC5)c3Cl)c2Cl)cnc1CN1CCC(CO)C1` (stereo not drawn) [Compound 33] gave an IC50 in experiment [1] of 6.99 nM. At PD1/PD-L1, the “Maximum effect (induction fold)” value was 4.14 induction fold and the IC50 is 18.9 nM.

Molecule `COc1cc(C(=O)Nc2cccc(-c3cccc(-c4cnc(CN5CC(O)C5)c(OC)n4)c3Cl)c2Cl)nc2c1CCN(CCO)C2` [Compound 41] came in with an IC50 in experiment [1] of 5.27 nM. Moreover, on PD1/PD-L1, the “Maximum effect (induction fold)” value was found to be 3.50 induction fold and the IC50 is 29.2 nM.

For `COc1nc(-c2cccc(-c3cccc(NC(=O)c4cc(C(F)(F)F)c5c(n4)CN(CCO)CC5)c3Cl)c2Cl)cnc1CN1CC(O)C1` [Compound 46], the IC50 in experiment [1] was 22.6 nM. Further, on PD1/PD-L1, the “Maximum effect (induction fold)” value is given as 5.56 induction fold and the IC50 came out at 571 nM.

Turning to `COc1nc(-c2cccc(-c3cccc(NC(=O)c4cc(C)c5c(n4)CN(CC(=O)O)CC5)c3Cl)c2C)cnc1CN1CC(O)C1` [Compound 22], the IC50 in experiment [1] stood at 79.7 nM. At PD1/PD-L1, the “Maximum effect (induction fold)” value was determined as 3.79 induction fold and the IC50 turned out to be 58.8 nM.

As to `COc1nc(-c2cccc(-c3cccc(NC(=O)c4cc(C)c5c(n4)CN(CCO)CC5)c3Cl)c2Cl)cnc1CN1CC(CO)C1` [Compound 35], the IC50 in experiment [1] was 5.18 nM. In addition, at PD1/PD-L1, the “Maximum effect (induction fold)” value is recorded as 4.44 induction fold and the IC50 came to 17.5 nM.

As to `COc1nc(-c2cccc(-c3cccc(NC(=O)c4cc(C)c5c(n4)CN(CCC(C)O)CC5)c3Cl)c2Cl)cnc1CN1CC(O)C1` (stereo not drawn) [Compound 49], the IC50 in experiment [1] turned out to be 33.8 nM; on PD1/PD-L1 it was 175 nM. Moreover, the “Maximum effect (induction fold)” value on PD1/PD-L1 came out at 5.30 induction fold.

Molecule `COc1nc(-c2cccc(-c3cccc(NC(=O)c4cc(C)c5c(n4)CN(CCO)CC5)c3Cl)c2Cl)cnc1CN1CC2(CC(O)C2)C1` [Compound 39] returned an IC50 in experiment [1] of 5.52 nM. Besides, at PD1/PD-L1, the “Maximum effect (induction fold)” value turned out to be 4.62 induction fold and the IC50 is 11.9 nM.

Take `COc1nc(-c2cccc(-c3cccc(NC(=O)c4cc(C)c5c(n4)CN(CCO)CC5)c3Cl)c2Cl)cnc1CNCC1CCC(=O)N1` (stereo not drawn) [Compound 38]: in experiment [1], the IC50 came to 8.86 nM. Moreover, on PD1/PD-L1, the “Maximum effect (induction fold)” value is on record as 4.40 induction fold and the IC50 came out at 50.8 nM.

`COc1nc(-c2cccc(-c3cccc(NC(=O)c4cc(C)c5c(n4)CN(CCO)CC5)c3Cl)c2Cl)cnc1CN1CCCC1CO` (stereo not drawn) [Compound 40] showed an IC50 in experiment [1] of 22.5 nM. Further, at PD1/PD-L1, the “Maximum effect (induction fold)” value was found to be 3.72 induction fold and the IC50 worked out at 46.1 nM.

On to `COc1nc(-c2cccc(-c3cccc(NC(=O)c4cc(OC(F)F)c5c(n4)CN(CCO)CC5)c3Cl)c2Cl)cnc1CN1CC(O)C1` [Compound 48], for which the IC50 in experiment [1] stood at 8.93 nM; at PD1/PD-L1 it was 21.2 nM. For the same molecule, the “Maximum effect (induction fold)” value at PD1/PD-L1 is 3.80 induction fold.
